The target in the experiment is T1, ALK (baculovirus expressed human ALK kinase domain F1098-K1410) (Homo sapiens, UniProt Q9UM73).
T1 construct: human ALK kinase domain F1098-K1410; made in house
Put plainly: biochemical. As to conditions: 1 μM ATP, 4 μM poly-AEKY, 12 nM ALK, 2 hours at ambient temperature; read-out: ALK IC50. In short, it runs like this:
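Inhibitors were tested at 10 concentrations, and IC50 was derived from a sigmoidal fit (Min, Max, Hill slope). Kinase activity was measured as percent ATP left after a 2 h reaction at room temperature, detected by luciferase-luciferin chemiluminescence. The ATP level was set close to KM for the ALK kinase domain F1098-K1410.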

Each structure is given as a SMILES string.

T1 sequence (Q9UM73 1098-1410): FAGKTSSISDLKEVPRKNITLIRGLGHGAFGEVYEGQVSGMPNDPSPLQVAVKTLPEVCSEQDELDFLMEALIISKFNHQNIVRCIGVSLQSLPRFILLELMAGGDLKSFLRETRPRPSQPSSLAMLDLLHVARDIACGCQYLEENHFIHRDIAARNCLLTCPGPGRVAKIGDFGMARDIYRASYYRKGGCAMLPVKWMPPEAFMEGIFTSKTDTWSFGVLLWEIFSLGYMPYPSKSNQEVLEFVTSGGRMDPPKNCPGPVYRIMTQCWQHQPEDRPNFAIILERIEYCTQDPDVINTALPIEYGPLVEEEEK

What is called IC50 is the concentration that inhibits the measured activity by half. Take `O=C(NCc1nc(C(=O)NCCc2cccc(Cl)c2)cs1)N[C@@H]1C[C@H]1c1ccccc1` [Entry 217, N-[2-(3-chlorophenyl)ethyl]-2-{[({[(1R,2S)-2-phenylcyclopropyl]amino}carbonyl)amino]methyl}-1,3-thiazole-4-carboxamide]: the concentration for half-maximal inhibition (IC50) lay in the range of 50 to 500 nM.
`CCOc1cc(CCNC(=O)c2csc(CNC(=O)COc3ccc(OC(F)(F)F)cc3)n2)ccc1OC` [Entry 20, N-{2-[3-(ethyloxy)-4-(methyloxy)phenyl]ethyl}-2-({[({4-[(trifluoromethyl)oxy]phenyl}oxy)acetyl]amino}methyl)-1,3-thiazole-4-carboxamide]: the IC50 was less than 50 nM.
`O=C(COc1ccc(OC(F)(F)F)cc1)NCc1nc(C(=O)NCCc2cccc(F)c2)co1` [Entry 148, N-[2-(3-fluorophenyl)ethyl]-2-({[({4-[(trifluoromethyl)oxy]phenyl}oxy)acetyl]amino}methyl)-1,3-oxazole-4-carboxamide]: the IC50 lay within 50 to 500 nM.
Under `O=C(COc1ccc(OC(F)(F)F)cc1)NCc1nc(C(=O)NCCSCc2ccco2)cs1` [Entry 71, N-{2-[(furan-2-ylmethyl)thio]ethyl}-2-({[({4-[(trifluoromethyl)oxy]phenyl}oxy)acetyl]amino}methyl)-1,3-thiazole-4-carboxamide] stands 50 to 500 nM; under `O=C(COc1ccc(OC(F)(F)F)cc1)NCc1nc(C(=O)NCCc2ccccc2Oc2ccccc2)cs1` [Entry 213, N-{2-[2-(phenyloxy)phenyl]ethyl}-2-({[({4-[(trifluoromethyl)oxy]phenyl}oxy)acetyl]amino}methyl)-1,3-thiazole-4-carboxamide], 50 to 500 nM.
In the case of `O=C(COc1ccc(OC(F)(F)F)cc1)NCc1nc(C(=O)NCCc2ccccc2)cs1` [Entry 145, N-(2-phenylethyl)-2-({[({4-[(trifluoromethyl)oxy]phenyl}oxy)acetyl]amino}methyl)-1,3-thiazole-4-carboxamide], the IC50 was in the range of 50 to 500 nM.
With `CCN(CC)C(=O)C1CCCN(C(=O)c2csc(CNC(=O)COc3ccc(OC(F)(F)F)cc3)n2)C1` (stereo not drawn) [Entry 270, N,N-diethyl-1-{[2-({[({4-[(trifluoromethyl)oxy]phenyl}oxy)acetyl]amino}methyl)-1,3-thiazol-4-yl]carbonyl}piperidine-3-carboxamide], the half-inhibitory concentration (IC50) is 500 to 2000 nM.
The result for `COc1cccc(OC)c1CNC(=O)c1csc(CNC(=O)COc2ccc(OC(F)(F)F)cc2)n1` [Entry 106, N-{[2,6-bis(methyloxy)phenyl]methyl}-2-({[({4-[(trifluoromethyl)oxy]phenyl}oxy)acetyl]amino}methyl)-1,3-thiazole-4-carboxamide] reads 50 to 500 nM.
With `COc1ccc(OC)c(CCNC(=O)c2csc(CNC(=O)COc3ccc(OC(F)(F)F)cc3)n2)c1` [Entry 137, N-{2-[2,5-bis(methyloxy)phenyl]ethyl}-2-({[({4-[(trifluoromethyl)oxy]phenyl}oxy)acetyl]amino}methyl)-1,3-thiazole-4-carboxamide], the IC50 lay in the range of 50 to 500 nM.
